The source of these data is patent US10213476B2, “Compstatin analogs with improved potency and pharmacokinetic properties” (The Trustees of the University of Pennsylvania, priority 2014, dated 2019).

The term IC50 denotes the concentration that gives 50% inhibition. A lower IC50 goes with greater potency. The term half-life denotes the time in which the quantity being followed falls by half.

For data set [1] the following is noted: compared with parent peptide.
Data set [2] concerns the target human serum albumin (HSA) (Homo sapiens, UniProt P02768). As to the kind of experiment: SPR competition between immobilized ABM2-Cp20 and soluble ibuprofen for HSA. In kind it is binding. Particulars: concluded from ibuprofen (site II ligand) competition.
Description: Data were recorded at 25° C. using PBS-T (10 mM sodium phosphate, 150 mM NaCl, 0.005% Tween-20, pH 7.4) as running buffer, and untreated flow cells were used as a reference surface.
In data set [3] the test system is complement activation initiated via the classical pathway. Briefly: ELISA of immune complex-induced complement activation (classical pathway) in human plasma. It counts as biochemical.
Description: Each peptide was dissolved in water, and its concentration was determined by Nanodrop using the absorbance at 280 nm. […] The percent inhibition was plotted against the peptide concentration, and the resulting data set was fitted to the logistic dose-response function to obtain IC50 values (FIG. 4).
Data set [4] in a line: Plasma protein binding by rapid equilibrium dialysis (RED). In kind it is in vitro ADME. Particulars: human, 37° C.; for fraction unbound at 24 h, 5 μM: peptide 5 μM; for fraction unbound at 24 h, 10 μM: peptide 10 μM. The procedure: A rapid equilibrium dialysis (RED) device with inserts (MWCO 8 K) was used (Thermo Scientific). C3-depleted serum (product no. A314) was purchased from Complement Technology, Tyler, Tex. Purified C3 (Complement Technology, A113c) was added to C3-depleted serum at a defined, physiologically relevant concentration (5 μM) to maintain the sample matrix and inhibitor-target ratio in comparative experiments (referred to as C3-positive serum).
Equilibrium dialysis using RED device was performed to determine the plasma protein binding. The inserts were soaked in water for 10 min before discarding the water (twice), and then used immediately (Waters et al., 2008, J. Pharm. Sci. 97, 4586). A mixture of 90 μL C3-depleted or C3-positive serum and 10 μL compstatin sample (5 or 10 μM) in PBS buffer (10% DMSO, 0.5% Tween 20, 0.2% sodium azide) was placed in the plasma chamber, and 300 μL PBS buffer (1% DMSO and 0.05% Tween 20) was placed in the buffer chamber. The final DMSO concentration of the dialysis system was 1%. The plate was covered with a sealing tape and incubated at 37° C. on an orbital shaker (200 rpm) for 24 h. Each sample was analyzed at least twice.
A 50-μL aliquot of each post-dialysis sample from both the plasma and buffer chambers was pipetted into separate LoBind tubes (Eppendorf). The samples from plasma chambers were diluted with 50 μL PBS, while samples from buffer chambers were diluted with C3-depleted, or C3 positive serum (matrix match). All samples were diluted to 100 μL using 4% H3PO4 to dissociate the peptides. […] The eluent was injected into the UPLC-HDMS system consisting of an online ACQUITY UPLC (Waters BEH C18 column, 130 Å, 1.7 μm, 2.1 mm×150 mm) coupled to a SYNAPT G2-S HDMS instrument equipped with an ESI source (capillary voltage was set to 3.2 kV, the cone voltage to 30 V and the source temperature to 120° C.). MS peak areas of the peptide were determined by integration for the quantification (Qu et al., 2013, supra). The unbound fraction of the peptide in plasma (% free) was calculated from the ratio of the buffer side response to the plasma side response. The bound fraction of the compound was calculated as follows: % bound=100−% free.
On the technique in general: Equilibrium dialysis compares concentrations on both sides of a semipermeable membrane.

For a further data set, the target named is baboon albumin. Briefly: SPR of albumin binding to immobilized ABM2-Cp20 (baboon albumin). Conditions: baboon albumin 6.3-100 μM over immobilized biotinylated ABM2-Cp20; read-out: Apparent binding affinity.
In the next data set the target is T1, C3b (Homo sapiens, UniProt P01024).
T1 construct: a two-chain molecule consisting of a β chain (residues 1 to about 645) and an α-chain (residues 650-1,641)
As to the kind of experiment: SPR single-cycle kinetic analysis of compstatin analogs on immobilized C3b. Conditions: C3b surface 3000-5000 RU, 25° C., PBS-T, 1:1 binding model. On the procedure: Individual injections within a cycle were 2 min long with a 5-min dissociation between injections. After the end of the last injection, a 40-min dissociation time was allowed. […] Each assay was performed at least twice.

The target in a further data set is C3 (Homo sapiens, UniProt P01024). Particulars: versus earlier compstatin analogs, backbone N-methylation; cited from earlier work.
The conditions of data set [5]: NHP; cited from earlier work.
Another data set addresses human serum albumin (Homo sapiens, UniProt P02768). Particulars: cited from earlier work.
For data set [6] the following is noted: in human; cited from earlier work.
[7] abbreviates: C3-depleted serum with 5 μM purified C3, 24 h, read-out: C3-positive serum % bound.
The mark [8] stands for this setting: C3-depleted serum, 24 h, read-out: C3-depleted serum % bound (converted).
Where [9] appears, read: C3-depleted serum with 5 μM purified C3, 24 h, read-out: C3-positive serum % bound (converted).

SMILES strings stand for the structures. Where two headings read alike, the source gives them in different places.

T1 sequence (P01024 23-667 limits assumed): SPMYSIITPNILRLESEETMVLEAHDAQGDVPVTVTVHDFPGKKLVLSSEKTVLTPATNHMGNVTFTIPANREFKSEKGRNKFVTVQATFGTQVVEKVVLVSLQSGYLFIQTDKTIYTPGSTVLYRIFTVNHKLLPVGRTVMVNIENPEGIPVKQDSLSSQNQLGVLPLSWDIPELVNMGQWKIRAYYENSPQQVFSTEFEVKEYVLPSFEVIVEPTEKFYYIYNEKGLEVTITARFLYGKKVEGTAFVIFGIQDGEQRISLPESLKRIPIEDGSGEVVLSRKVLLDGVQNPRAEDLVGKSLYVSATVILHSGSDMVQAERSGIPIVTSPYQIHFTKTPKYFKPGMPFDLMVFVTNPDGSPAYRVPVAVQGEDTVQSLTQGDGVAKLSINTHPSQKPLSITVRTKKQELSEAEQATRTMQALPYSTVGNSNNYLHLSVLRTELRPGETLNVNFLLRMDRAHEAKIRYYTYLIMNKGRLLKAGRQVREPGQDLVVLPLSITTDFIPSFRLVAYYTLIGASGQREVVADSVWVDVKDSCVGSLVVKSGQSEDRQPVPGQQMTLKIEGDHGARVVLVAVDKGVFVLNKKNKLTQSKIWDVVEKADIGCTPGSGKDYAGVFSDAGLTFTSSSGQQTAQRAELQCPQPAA
T1 sequence (P01024 749-1663 partner limits assumed): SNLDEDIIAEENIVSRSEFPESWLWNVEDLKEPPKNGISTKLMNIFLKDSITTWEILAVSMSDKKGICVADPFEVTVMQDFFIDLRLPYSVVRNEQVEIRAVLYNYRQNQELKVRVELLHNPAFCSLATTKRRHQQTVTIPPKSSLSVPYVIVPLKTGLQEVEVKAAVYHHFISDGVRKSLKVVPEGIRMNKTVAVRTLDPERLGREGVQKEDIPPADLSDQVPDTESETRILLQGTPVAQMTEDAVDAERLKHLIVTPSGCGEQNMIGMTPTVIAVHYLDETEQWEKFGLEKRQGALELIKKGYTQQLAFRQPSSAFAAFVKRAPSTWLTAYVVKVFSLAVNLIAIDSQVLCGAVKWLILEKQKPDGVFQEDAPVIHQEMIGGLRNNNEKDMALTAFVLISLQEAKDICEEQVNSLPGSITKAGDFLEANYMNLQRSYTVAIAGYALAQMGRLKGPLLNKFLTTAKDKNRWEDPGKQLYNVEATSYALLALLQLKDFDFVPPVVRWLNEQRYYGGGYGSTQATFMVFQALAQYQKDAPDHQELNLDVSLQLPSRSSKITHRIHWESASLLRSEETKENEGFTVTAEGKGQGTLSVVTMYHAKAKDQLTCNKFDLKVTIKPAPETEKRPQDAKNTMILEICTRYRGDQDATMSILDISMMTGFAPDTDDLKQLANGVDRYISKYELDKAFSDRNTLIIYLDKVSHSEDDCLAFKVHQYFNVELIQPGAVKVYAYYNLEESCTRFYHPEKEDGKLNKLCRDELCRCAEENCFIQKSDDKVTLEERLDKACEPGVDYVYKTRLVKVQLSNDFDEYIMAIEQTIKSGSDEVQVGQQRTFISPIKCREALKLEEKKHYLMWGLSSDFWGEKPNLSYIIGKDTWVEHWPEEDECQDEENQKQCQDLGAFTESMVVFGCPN
C3, sequence (P01024 23-1663): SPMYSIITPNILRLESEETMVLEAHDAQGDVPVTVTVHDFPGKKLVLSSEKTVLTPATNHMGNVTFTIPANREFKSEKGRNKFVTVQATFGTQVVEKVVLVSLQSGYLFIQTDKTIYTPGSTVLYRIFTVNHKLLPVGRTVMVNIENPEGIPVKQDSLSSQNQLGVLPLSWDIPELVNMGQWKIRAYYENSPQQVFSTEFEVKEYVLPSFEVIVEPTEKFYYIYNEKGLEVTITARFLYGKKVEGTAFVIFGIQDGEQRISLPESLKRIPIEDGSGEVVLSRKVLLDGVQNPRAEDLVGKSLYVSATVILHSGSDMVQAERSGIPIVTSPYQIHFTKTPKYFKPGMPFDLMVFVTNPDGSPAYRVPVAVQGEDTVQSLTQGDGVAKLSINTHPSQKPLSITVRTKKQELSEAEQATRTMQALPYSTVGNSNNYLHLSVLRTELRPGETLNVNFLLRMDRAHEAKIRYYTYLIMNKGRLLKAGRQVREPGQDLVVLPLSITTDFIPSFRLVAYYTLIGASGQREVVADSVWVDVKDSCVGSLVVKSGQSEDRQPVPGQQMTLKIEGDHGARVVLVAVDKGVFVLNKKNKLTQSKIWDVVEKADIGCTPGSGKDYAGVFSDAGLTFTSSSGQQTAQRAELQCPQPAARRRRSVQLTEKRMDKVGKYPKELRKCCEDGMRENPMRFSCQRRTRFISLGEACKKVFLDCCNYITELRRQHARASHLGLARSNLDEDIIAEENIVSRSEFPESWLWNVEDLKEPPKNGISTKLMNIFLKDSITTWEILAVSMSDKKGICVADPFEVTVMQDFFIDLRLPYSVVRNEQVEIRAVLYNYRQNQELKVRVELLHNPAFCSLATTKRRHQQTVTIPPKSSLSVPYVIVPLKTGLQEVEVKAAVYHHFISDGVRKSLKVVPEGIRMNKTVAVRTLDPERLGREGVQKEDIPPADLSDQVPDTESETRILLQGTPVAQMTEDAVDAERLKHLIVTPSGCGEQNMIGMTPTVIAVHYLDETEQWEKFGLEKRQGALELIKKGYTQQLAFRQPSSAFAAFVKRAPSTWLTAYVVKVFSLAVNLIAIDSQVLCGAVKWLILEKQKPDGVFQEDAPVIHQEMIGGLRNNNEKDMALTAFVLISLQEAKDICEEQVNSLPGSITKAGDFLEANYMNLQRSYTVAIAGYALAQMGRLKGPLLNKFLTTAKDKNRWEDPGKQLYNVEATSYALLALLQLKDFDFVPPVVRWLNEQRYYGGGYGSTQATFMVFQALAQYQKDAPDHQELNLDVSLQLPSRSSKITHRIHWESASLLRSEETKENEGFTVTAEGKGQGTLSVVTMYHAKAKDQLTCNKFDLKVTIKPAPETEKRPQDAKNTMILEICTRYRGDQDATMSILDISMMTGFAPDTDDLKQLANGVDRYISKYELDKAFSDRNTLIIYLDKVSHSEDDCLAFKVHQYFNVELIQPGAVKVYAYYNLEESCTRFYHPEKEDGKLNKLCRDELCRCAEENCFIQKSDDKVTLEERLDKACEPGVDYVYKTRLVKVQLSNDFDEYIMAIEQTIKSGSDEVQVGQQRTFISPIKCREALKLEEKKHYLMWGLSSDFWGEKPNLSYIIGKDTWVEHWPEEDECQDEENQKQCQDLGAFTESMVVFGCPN
human serum albumin (HSA), sequence (P02768 25-609): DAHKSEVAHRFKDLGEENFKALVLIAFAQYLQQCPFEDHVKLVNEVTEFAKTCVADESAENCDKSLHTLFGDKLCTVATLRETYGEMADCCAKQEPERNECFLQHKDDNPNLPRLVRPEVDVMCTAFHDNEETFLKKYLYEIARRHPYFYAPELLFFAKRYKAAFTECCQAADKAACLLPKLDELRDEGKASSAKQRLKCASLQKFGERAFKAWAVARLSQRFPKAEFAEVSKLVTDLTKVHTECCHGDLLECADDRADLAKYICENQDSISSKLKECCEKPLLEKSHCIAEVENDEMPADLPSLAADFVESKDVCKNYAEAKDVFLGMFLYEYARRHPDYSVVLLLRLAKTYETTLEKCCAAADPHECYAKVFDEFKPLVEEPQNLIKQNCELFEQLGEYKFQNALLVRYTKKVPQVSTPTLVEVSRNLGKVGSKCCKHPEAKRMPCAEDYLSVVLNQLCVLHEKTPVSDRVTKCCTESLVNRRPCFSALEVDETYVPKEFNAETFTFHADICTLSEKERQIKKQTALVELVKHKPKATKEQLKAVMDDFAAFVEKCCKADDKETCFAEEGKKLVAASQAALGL
human serum albumin, sequence (P02768 25-609): as above
Description for baboon albumin: Streptavidin was immobilized on all flow cells of CM5 sensor chips (GE Healthcare) using standard amine coupling under 30° C. […] Sets of five increasing concentrations (6.3-100 μM) of albumin from different species (human, mouse, bovine, rabbit and baboon) were injected over the chip surface (FIG. 2). Data were recorded at 25° C. using PBS-T (10 mM sodium phosphate, 150 mM NaCl, 0.005% Tween-20, pH 7.4) as running buffer. Data were processed in Scrubber (v2.0c; Bio-Logic Software, Campbell, Australia); the signals from an untreated flow cell and buffer blank injections were subtracted. Apparent binding affinities (KD app) were calculated by fitting the steady state responses to a single-binding-site model.

As for `CC[C@H](C)[C@H](NC(=O)CCCCCOP(=O)(O)OC1CCC(c2ccccc2)(c2ccccc2)CC1)C(=O)N[C@H]1CSSC[C@@H](C(=O)N(C)[C@H](C(N)=O)[C@@H](C)CC)NC(=O)[C@H](CCCNC(=N)N)NC(=O)[C@H](Cc2c[nH]cn2)NC(=O)[C@H](C)NC(=O)CN(C)C(=O)[C@H](Cc2c[nH]c3ccccc23)NC(=O)[C@H](CC(=O)O)NC(=O)[C@H](CCC(N)=O)NC(=O)[C@H](Cc2cn(C)c3ccccc23)NC(=O)[C@H](C(C)C)NC1=O` [ABM2-Cp20, ABM2-Ile-[Cys-Val-Trp(Me)-Gln-Asp-Trp-Sar-Ala-His-Arg-Cys]-mIle-NH2], the solubility entry in data set [1] is “lower solubility”. Besides, the albumin binding site result in [2] is listed as “binds primarily to site II”. This compound also returned an IC50 in data set [3] of 170 ± 110 nM. For the same compound, the fraction unbound at 24 h, 5 μM in [4] (setting [7]) and in data set [4] (setting [8]) was less than 0.01 in each case. The fraction unbound at 24 h, 10 μM in data set [4] (setting [9]) and in [4] (setting [8]) was less than 0.01 in each case. Further, on baboon albumin, the Kd was determined as 106000 ± 3000 nM.

In turn, `CC[C@H](C)[C@H](NC(=O)[C@@H](Cc1ccc(O)cc1)NC(=O)CCCCCOP(=O)(O)OC1CCC(c2ccccc2)(c2ccccc2)CC1)C(=O)N[C@H]1CSSC[C@@H](C(=O)N(C)[C@H](C(N)=O)[C@@H](C)CC)NC(=O)[C@H](CCCNC(=N)N)NC(=O)[C@H](Cc2c[nH]cn2)NC(=O)[C@H](C)NC(=O)CN(C)C(=O)[C@H](Cc2c[nH]c3ccccc23)NC(=O)[C@H](CC(=O)O)NC(=O)[C@H](CCC(N)=O)NC(=O)[C@H](Cc2cn(C)c3ccccc23)NC(=O)[C@H](C(C)C)NC1=O` [ABM2-Cp40] gave an IC50 in [3] of 80 ± 30 nM. In addition, the kd at C3b is given as 0.5 ± 0.2 10^−3 s^−1.

In data set [3], `CC[C@H](C)[C@H](NC(C)=O)C(=O)N[C@H]1CSSC[C@@H](C(=O)N(C)[C@H](C(N)=O)[C@@H](C)CC)NC(=O)[C@H](CCCNC(=N)N)NC(=O)[C@H](Cc2c[nH]cn2)NC(=O)[C@H](C)NC(=O)CN(C)C(=O)[C@H](Cc2c[nH]c3ccccc23)NC(=O)[C@H](CC(=O)O)NC(=O)[C@H](CCC(N)=O)NC(=O)[C@H](Cc2cn(C)c3ccccc23)NC(=O)[C@H](C(C)C)NC1=O` [Cp20, Ac-Ile-[Cys-Val-Trp(Me)-Gln-Asp-Trp-Sar-Ala-His-Arg-Cys]-mIle-NH2, reference compound] had a half-maximal inhibitory concentration (IC50) of 260 ± 120 nM. For the same compound, the kd at C3b is 6.7 ± 2.9 10^−3 s^−1. Also, at C3b (read-out: ka), the kon was found to be 2.3e+06 ± 700000 M⁻¹ s⁻¹. Besides, the improved affinity on C3 is reported as 10 fold. In addition, the fraction unbound at 24 h, 5 μM was less than 0.01 in data set [4] (setting [7]) and 0.93 in data set [4] (setting [8]). Besides, the values for the fraction unbound at 24 h, 10 μM in [4] (setting [9]) and in data set [4] (setting [8]) were 0.16 and 0.97, respectively. Besides, the half-life in data set [5] is reported as 9 h.

As to `CC[C@H](C)[C@H](NC(=O)[C@H](N)Cc1ccc(O)cc1)C(=O)N[C@H]1CSSC[C@@H](C(=O)N(C)[C@H](C(N)=O)[C@@H](C)CC)NC(=O)[C@H](CCCNC(=N)N)NC(=O)[C@H](Cc2c[nH]cn2)NC(=O)[C@H](C)NC(=O)CN(C)C(=O)[C@H](Cc2c[nH]c3ccccc23)NC(=O)[C@H](CC(=O)O)NC(=O)[C@H](CCC(N)=O)NC(=O)[C@H](Cc2cn(C)c3ccccc23)NC(=O)[C@H](C(C)C)NC1=O` [Cp40, (D)Tyr-Ile-[Cys-Val-Trp(Me)-Gln-Asp-Trp-Sar-Ala-His-Arg-Cys]-mIle-NH2, reference compound], the kd on C3b is recorded as 1.3 ± 0.2 10^−3 s^−1. Further, in data set [5], the half-life is given as 12 h.

For `O=C([O-])CN(CCN(CC(=O)[O-])CC(COP(=O)([O-])OC1CCC(c2ccccc2)(c2ccccc2)CC1)N(CC(=O)[O-])CC(=O)[O-])CC(=O)[O-].[Gd+3].[Na+].[Na+].[Na+]` (centres unmarked) [MS-325, gadofosveset trisodium], the Kd on human serum albumin is 164000 nM. In addition, the intravascular half-life in data set [6] is 18.5 ± 3 h.
